Several values for one entry are separate records, joined by “and”; a condition that tells them apart may be missing. Equal entries are not always repeated.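 Dose response: 5 concentrations. Exposure: 48 h. Format: 96-well plates. Endpoint: linear interpolation; highest concentration if not reached. GI50 marks 50% less growth. TGI: concentration producing complete growth inhibition.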
How the values were obtained:
Experiment in all cases: growth of human tumour cells (NCI), 48 h
COLO 205 colon = system: COLO 205 colon
EKVX NSCLC = system: EKVX NSCLC
HCC-2998 colon = system: HCC-2998 colon
HCT-15 colon = system: HCT-15 colon
MCF7 breast = system: MCF7 breast
NCI-H23 lung = system: NCI-H23 lung
RXF 393 renal = system: RXF 393 renal
SF-295 CNS = system: SF-295 CNS
SNB-75 CNS = system: SNB-75 CNS
U251 CNS = system: U251 CNS

SMILES | TGI (COLO 205 colon) | TGI (EKVX NSCLC) | TGI (HCC-2998 colon) | TGI (HCT-15 colon) | TGI (MCF7 breast) [µM] | TGI (NCI-H23 lung) | TGI (RXF 393 renal) [µM] | TGI (SF-295 CNS) | TGI (SNB-75 CNS) | TGI (U251 CNS) | GI50 (EKVX NSCLC) [µM] | GI50 (HCC-2998 colon) [µM] | GI50 (NCI-H23 lung) [µM] | GI50 (SF-295 CNS) [µM] | GI50 (SNB-75 CNS) [µM] | GI50 (U251 CNS) [µM]
Cc1ccc(-c2cc(-c3ccco3)c(C#N)c(=S)[nH]2)cc1 | > 100 µM | > 100 µM | > 100 µM | > 100 µM | > 100 | 97.8 µM | > 100 | > 100 µM | > 100 µM | 62.9 µM | – | – | – | – | – | –
O=C(ON=C1c2ccccc2C(Br)C(Br)c2ccccc21)c1ccccc1 (stereo unspecified) | 36.7 µM | 46.6 µM | 38.1 µM | 42.5 µM | 31.5 | 37.8 µM | 28.4 | 36.4 µM | > 65.9 µM | 31.6 µM | – | – | – | – | – | –
O=CC(I)=C(c1ccccc1)c1ccccc1 | 32.4 µM | 36 µM | 35.8 µM | 28.4 µM | 31.9 | 46.9 µM | 41.4 | 31.6 µM | > 52.7 µM | 30.2 µM | – | – | – | – | – | –
CCOC1C=CC(=O)C(CO)O1 (stereo unspecified) | 30.4 µM | 33.3 µM | 34.4 µM | 25.3 µM | 17.7 | 27.6 µM | 24.2 | 33.2 µM | 33.5 µM | 27.9 µM | – | – | – | – | – | –
CN(O)C(=O)/C=C/c1ccc(OCc2cccc(Cl)c2)cc1 | > 100 µM | > 100 µM | 72.7 µM | 29.1 µM | > 100 | 49 µM | > 100 | > 100 µM | > 100 µM | > 100 µM | – | – | – | – | – | –
Cc1c2ccnc(C(N)=O)c2c(C)c2c1[nH]c1ccccc12 | 50 µM and > 100 µM | 35.3 µM and 46.8 µM | 50 µM and 19.4 µM | 41.1 µM and > 100 µM | 32 | 24.4 µM and 18.9 µM | 16.6 | 25.6 µM and 22.3 µM | 24.6 µM and 39.9 µM | 37.7 µM and 16.5 µM | 6.56 | 4.67 | 3.41 | 4.37 | 13.8 | 4.14
COC(=O)/C=C(/C=C1/C(C#N)=C(N)N(c2ccc(Cl)cc2)C1(C)/C(=C\C(=O)OC)C(=O)OC)C(=O)OC (stereo unspecified) | 29.8 µM | > 100 µM | 39.2 µM | 50.2 µM | 46.2 | 40.5 µM | 35.4 | > 100 µM | 63.3 µM | 60.2 µM | – | – | – | – | – | –
CC(=O)O[C@@H](c1nccn1Cc1ccccc1)[C@H]1OC(C)(C)O[C@@H]1[C@H]1COC(C)(C)O1 | > 100 µM | > 100 µM | > 100 µM | > 100 µM | > 100 | > 100 µM | > 100 | > 100 µM | > 100 µM | > 100 µM | – | – | – | – | – | –
NC1=CC(=O)c2c(O)ccc(O)c2C1=O | 20.9 µM | 36.2 µM | 24.2 µM | > 56.1 µM | 18.6 | 27.9 µM | 22.1 | 40.9 µM | 83.3 µM | 33.9 µM | – | – | – | – | – | –
CC(=O)Nc1nc(Cl)cc(NCC2(CO)CCC2)n1 | > 100 µM | > 100 µM | > 100 µM | > 100 µM | > 100 | > 100 µM | > 100 | > 100 µM | > 100 µM | > 100 µM | – | – | – | – | – | –
COc1ccc2nc(NC(=O)/C(C#N)=C/c3ccccc3)sc2c1 | > 100 µM | > 100 µM | > 100 µM | > 100 µM | > 100 | > 100 µM | > 100 | > 100 µM | > 87.8 µM | > 100 µM | – | – | – | – | – | –
CCCCCCN(CCCCCC)C(=S)N/N=C(\C)c1ccccn1 | 2.14 µM | 3.01 µM | 9.03 µM | 3.4 µM | 3.16 | 3.27 µM | 2.78 | 3.19 µM | 3.68 µM | 1.71 µM | – | – | – | – | – | –
Cn1c2ccccc2c2ccc3c(c21)C(=O)c1ccc2c4ccccc4n(C)c2c1C3=O | > 100 µM | > 100 µM | > 100 µM | > 100 µM | > 100 | > 100 µM | > 100 | > 100 µM | > 100 µM | > 100 µM | – | – | – | – | – | –
O=C(/C=C/c1ccc(Cl)cc1)Oc1ccc(C=C2CCC/C(=C\c3ccc(OC(=O)/C=C/c4ccc(Cl)cc4)cc3)C2=O)cc1 | > 100 µM | > 100 µM | > 100 µM | > 100 µM | > 100 | > 100 µM | > 100 | > 100 µM | > 100 µM | > 100 µM | – | – | – | – | – | –
CN(C)CCN(c1ccccn1)c1ccccn1 | > 100 µM | > 100 µM | > 100 µM | > 100 µM | > 100 | > 100 µM | > 100 | > 100 µM | > 100 µM | > 100 µM | – | – | – | – | – | –
OCc1ccc2c(c1)CC1(C2)Cc2cc3c(cc2C1O)CCC3 (stereo unspecified) | 10.3 µM | 40.1 µM | > 45.3 µM | > 44.2 µM | 17.6 | 25.7 µM | 18.4 | 12.4 µM | 16.8 µM | 20.6 µM | – | – | – | – | – | –
COC(=O)/C=C(\C)CC/C=C(\C)CCC1OC1(C)C (stereo unspecified) | 30 µM | 24.3 µM | 22.8 µM | 21.9 µM | 21.8 | 24.2 µM | 23.8 | 21.3 µM | 38.8 µM | 22.5 µM | – | – | – | – | – | –
